{"source": "patent US11213494B2", "about": "(priority 2016, dated 2022)", "key": {"[1]": {"system": "Fos expression in the forebrain (piriform cortex)", "test": "Fos immunostaining 90 min after ketamine injection, count of Fos-positive cells", "assay_type": "in vivo, mice", "details": "for number of Fos-positive cells in the piriform cortex: 90 min after injection", "experimental": "Three- and 6-week-old male mice, or 11-week-old female mice, were deeply anesthetized by inhalation of isoflurane and perfused transcardially with PBS followed by ice-cold 4% paraformaldehyde in 0.1Mphosphate buffer, pH7.4, within 10 min. […] Brains were postfixed in 4% paraformaldehyde for 2.5 h, cryoprotected in 25% sucrose overnight, then frozen in 2-methylbutane at −45° C. and stored at −80° C. Coronal sections were cut at 40 μm with a cryostat microtome (Jung Frigocut 2800 N) and stored in PBS at 4° C.\nFree-floating 40 μm sections were processed for Fos immunostaining by blocking with 10% goat serum in dilution buffer (PBS, BSA, 0.3% Triton X-100) for 1.5 h and then incubated overnight at room temperature (20±2 h) in rabbit polyclonal anti-c-Fos primary antibody (1:3000, Calbiochem) in dilution buffer plus 10% goat serum. After sequential rinse steps in dilution buffer and PBS, sections were incubated in biotinylated goat anti-rabbit IgG secondary antibody (1:400, Vector Labs) in dilution buffer plus 15% goat serum for 1 h. After rinsing in PBS, sections were incubated in avidin and biotinylated horseradish peroxidase complex (ABC, 1:150, Vector Labs). Finally, sections were developed using the Sigma Fast diaminobenzidine and urea hydrogen peroxide set, mounted on Super Frost Plus slides and coverslipped using VectaShield (Vector Labs).\nAnimals were administered ketamine (8, 20, or 100 mg/kg, i.p.) or an equivalent volume of saline and then returned to their home cage for 90 min. Subsequently, the animals were deeply anesthetized by inhalation of isoflurane, perfused transcardially, and processed for Fos staining as described above.\nSections were visualized and photographed using an AxioSkop2 microscope (Zeiss) equipped with a Quantifire XI microscope camera (Optronics). Fos positive cells were counted using point by-point analysis with Neurolucida software (MBF Bioscience). Before analysis, the photomicrographs were coded so that the observers were blinded to the genotype. Cells were counted in every third section through the nTS, and in a representative subset of sections through the other brain regions analyzed. All sections were analyzed twice by two independent and blinded observers, and respective counts were averaged. The nTS was sampled at 12 levels through the rostro-caudal extent of the nucleus and the average counts at each level were then added together to estimate the total number of labeled cells per animal. To define genotype effects on Fos expression, G*Power 3 power analysis software was used to determine group sizes."}, "[2]": {"system": "Mecp2 Het mice", "test": "Prepulse inhibition (PPI) of the acoustic startle response", "assay_type": "in vivo", "details": "ketamine 8 mg/kg; for % PPI 73 dB: prepulse 73 dB; for % PPI 76 dB: prepulse 76 dB; for % PPI 82 dB: prepulse 82 dB", "description": "Prepulse inhibition (PPI) of the acoustic startle response (ASR) was measured to assess sensorimotor gating function using Med Associates Startle Response recording system. Mice were divided into four groups (Het ketamine, Het vehicle, Wt ketamine, Wt vehicle), and received injections of either ketamine (8 mg/kg) or an equivalent amount of saline immediately before they were placed individually inside a small-sized, nonrestrictive, cubical Plexiglas recording chamber [2.5 inches (L)×2.5 inches (W)×1.75 inches (H)] fixed on an accelerometer platform and allowed to acclimate for 5 min. Subsequently, the mouse was exposed to 4 testing blocks. In the first testing block, the initial startle response amplitude was determined by delivering a 40 ms pulse of 120 dB broadband white noise and recording the maximum startle amplitude (Vmax). A baseline startle response was determined by repeating this recording paradigm for six consecutive trials (with 8-23 s between each stimulus) and calculating the average Vmax measured in those trials. In the second and third testing blocks, the mice were exposed to a series of “pulse-only” or “prepulse-pulse pair” stimuli to determine the effect that a reduced intensity prepulse had on the acoustic startle response. The pulse-only stimulus consisted of an 80 ms stimulus of 120 dB. The prepulse-pulse pair trials were conducted by delivering a single 20 ms prepulse, with an intensity of 73, 76 or 82 dB before an 80 ms stimulus with an intensity of 120 dB. An average delay of 15 s (8-23 s) occurred between each stimulus. Each prepulse-pulse pair trial was repeated 10 times, pulse only trials were repeated 12 times. The Vmax measured from each prepulse-pulse trial was compared with the Vmax measured from the 120 dB pulse-only trials, and a percentage prepulse inhibition (% PPI) was calculated for each prepulse intensity. In the fourth testing block, startle response Vmax was recorded from 6 additional 40 ms pulses of 120 dB broadband white noise (with 8-23 s between each stimulus) and compared with the baseline startle response from the first testing block to eliminate the possibility of habituation to the acoustic stimulus throughout the test."}, "[3]": {"details": "in vivo; cited from earlier work"}, "[4]": {"system": "RTT mice (Mecp2Jae females)", "test": "Intermittent very low dose ketamine regimen with plethysmography", "assay_type": "in vivo", "details": "3 mg/kg once every 3 days for two weeks, measured 24 hours after the last injection", "description": "FIG. 14 illustrates a very low dose ketamine (3 mg/kg) dosing regimen for the treatment of RTT in miceMecp2Jae OC females treated once every 72 hours for two weeks (saline or Ketamine 3 mg/kg) with plethysmography measurement 24 hours after the last injection.\nThis Example evaluated a ketamine dosing regimen for the treatment of Rett syndrome. […] These effects are consistent with the ability of ketamine to increase activity in cortical pyramidal cells by selectively inhibiting cortical inhibitory interneurons."}}}
{"compound": "CNC1(c2ccccc2Cl)CCCCC1=O", "note": "(stereo not drawn) [ketamine]", "values": [{"measurement": "number of Fos-positive cells in the piriform cortex", "setting": "[1]; Null mice, ketamine 20 mg/kg i.p.", "result": "83.2±18.2", "unit": "cells"}, {"measurement": "number of Fos-positive cells in the piriform cortex", "setting": "[1]; Null mice, ketamine 100 mg/kg i.p.", "result": "116.3±26.4", "unit": "cells"}, {"measurement": "number of Fos-positive cells in the piriform cortex", "setting": "[1]; Wt mice, ketamine 100 mg/kg i.p.", "result": "119.3±17.2", "unit": "cells"}, {"measurement": "increase in the number of Fos-positive cells", "setting": "[1]; Wt mice, ketamine 100 mg/kg, piriform cortex", "result": 20, "unit": "%"}, {"measurement": "% PPI 73 dB", "setting": "[2]; Het mice", "result": "5.3±5.8", "unit": "%"}, {"measurement": "% PPI 76 dB", "setting": "[2]; Het mice", "result": "17.8±2.9", "unit": "%"}, {"measurement": "% PPI 82 dB", "setting": "[2]; Het mice", "result": "21.4±6.4", "unit": "%"}, {"measurement": "% PPI 73 dB", "setting": "[2]; Wt mice", "result": "7.8±4.1", "unit": "%"}, {"measurement": "% PPI 76 dB", "setting": "[2]; Wt mice", "result": "12.8±4.8", "unit": "%"}, {"measurement": "% PPI 82 dB", "setting": "[2]; Wt mice", "result": "24.1±5.8", "unit": "%"}, {"measurement": "half-life", "setting": "[3]", "result": "less than 1 hour"}, {"measurement": "apneic breathing", "setting": "[4]", "result": "complete elimination"}]}
